# Results as given in patent US3956312A, “Indazole-3-carboxylic acid hydrazides and a process for the preparation thereof” (Egyt Gyogyszervegyeszeti Gyar, priority 1973, dated 1976).
# Counter-ions that a name gives are not always drawn. Like-named read-outs stand apart in the source and are kept apart here.
# Tests used:
# gastric acid secretion [1] = experiment: inhibition of gastric acid secretion, Shay's method; format: in vivo, Wistar rats; settings: 5 hours
# Experimental: The animals were operated according to Shay's method, and the substance to be tested was administered intraperitoneally. After 5 hours the animals were sacrified, and the volume of gastric juice, the amount of free hydrochloric acid, and the total acidity were determined.
# [2] = spasmolytic effect in vivo, carbon suspension method of Stickney; settings: mouse, in vivo, ip; Table 1, spasmolytic effect, white mice, intraperitoneal; read-out: Therapeutical index LD50/ED50
# Experimental: (§1) The spasmolytic effect was tested under in vivo conditions on white mice, by the carbon suspension method of Stickney. The active agents were administered intraperitoneally, and the total length of the small intestines as well as the length of the intestines filled with carbon were measured. […] The ED50 values were calculated according to the LitchfieldWilcoxon method from the thus-transformed values. In order to evaluate the safety margin of the active agents, the acute LD50 values were also determined on white mice in intraperitoneal administration. The observation periods in the toxicity tests were 48 hours, and the calculation was performed according to the LitchfieldWilcoxon method, also taking into consideration the perished animals.
# small intestines = experiment: as above; settings: Mus musculus, ip; white mice, intraperitoneal, Litchfield-Wilcoxon
# Experimental: as §1
# [3] = acute toxicity (LD50), intraperitoneal, 48 hours observation; settings: mouse, in vivo, ip, read-out: Toxicity LD5
# Experimental: as §1
# gastric acid secretion [4] = experiment: inhibition of gastric acid secretion, Shay's method; format: in vivo, Wistar rats; settings: 5 hours; remark: listed apart in the source
# [5] = toxicity on mice p.o. (Table 2); settings: mouse, in vivo, po
# Reserpine-ulcer = experiment: antiulcer activity, Reserpine-ulcer; format: in vivo, rats; settings: related to the controls averages
# Experimental: (§2) The antiulcer activity of 5,6-dimethoxyindazole-3-carboxylic acid-benzylhydrazide was determined on rats.
# Shay ulcer = experiment: antiulcer activity, Shay ulcer; format: in vivo, rats; settings: related to the controls averages
# Experimental: as §2
# **Shay ulcer (Shay, H., Komarov, S.A., Fels, S.S., Meranze, D.,
# Gruenstein, M., Siplet, H.: Gastroenterology 5, 45 /1945/)
# [6] = antidepressant activity, inhibition of tetrabenazine ptosis; format: in vivo, mice; settings: mouse, in vivo; Table 4, antidepressant activity, mice, oral; read-out: Therapeutical index
# Experimental: (§3) The antidepressant activity was examined on mice, after oral administration. Tetrabenazine was administered to the animals in a dosage provoking maximum ptosis, and the inhibiting activity of the tested compounds was measured.
# tetrabenazine ptosis = experiment: as above; format: in vivo, mice; settings: for ED50: Mus musculus, mice, oral, tetrabenazine ptosis
# Experimental: as §3
# [7] = toxicity LD50 listed with the antidepressant activity (Table 4); settings: mouse, in vivo
# [8] = white mice, intraperitoneal, 48 hours observation
smiles,measurement,setting,value
"CCN(CC)CCOC(=O)C(c1ccccc1)c1ccccc1.Cl [Adiphenine, 2-diethylaminoethyl-diphenylacetate hydrochloride, reference compound]",Percentage inhibition of free HCl,gastric acid secretion [1]; 100 mg./kg. intraperitoneal,0%
same,Percentage inhibition of gastric juice,gastric acid secretion [1]; 100 mg./kg. intraperitoneal,36%
same,Percentage inhibition of total acidity,gastric acid secretion [1]; 100 mg./kg. intraperitoneal,0%
COc1cc2[nH]nc(C(=O)NNC(C)C)c2cc1OC [Compound 7],selectivity ratio,[2],20
same,ED50,small intestines,36 mg/kg
same,LD50 at 48 h,[3]; [8],720 mg/kg
same,Percentage inhibition of free HCl,gastric acid secretion [1]; 100 mg./kg. intraperitoneal,85%
same,Percentage inhibition of gastric juice,gastric acid secretion [1]; 100 mg./kg. intraperitoneal,80%
same,Percentage inhibition of total acidity,gastric acid secretion [1]; 100 mg./kg. intraperitoneal,67%
"COc1cc2[nH]nc(C(=O)NNC3CCCCCC3)c2cc1OC [Compound 28, 5,6-dimethoxyindazole-3-carboxylic acid-cycloheptylhydrazide]",selectivity ratio,[2],4.3
same,ED50,small intestines,280 mg/kg
same,LD50 at 48 h,[3]; [8],1200 mg/kg
same,Percentage inhibition of free HCl,gastric acid secretion [1]; 50 mg./kg. intraperitoneal,47%
same,Percentage inhibition of free HCl,gastric acid secretion [1]; 100 mg./kg. intraperitoneal,63%
same,Percentage inhibition of gastric juice,gastric acid secretion [1]; 100 mg./kg. intraperitoneal,47%
same,Percentage inhibition of total acidity,gastric acid secretion [1]; 100 mg./kg. intraperitoneal,36%
same,Percentage inhibition of gastric juice,gastric acid secretion [4]; 50 mg./kg. intraperitoneal,46%
same,Percentage inhibition of total acidity,gastric acid secretion [4]; 50 mg./kg. intraperitoneal,38%
"COc1cc2[nH]nc(C(=O)NNCc3ccccc3)c2cc1OC [Compound 30, 5,6-dimethoxyindazole-3-carboxylic acid-benzylhydrazide]",Percentage inhibition of free HCl,gastric acid secretion [1]; 25 mg./kg. i.p.,33%
same,Percentage inhibition of total acidity,gastric acid secretion [1]; 25 mg./kg. i.p.,20%
same,Percentage inhibition of free HCl,gastric acid secretion [1]; 100 mg./kg. intraperitoneal,74%
same,Percentage inhibition of gastric juice,gastric acid secretion [1]; 100 mg./kg. intraperitoneal,48%
same,Percentage inhibition of total acidity,gastric acid secretion [1]; 100 mg./kg. intraperitoneal,56%
same,LD50,[5],2000 mg/kg
same,Percentage inhibition according to the occurrence of ulcer,Reserpine-ulcer; 10 mg./kg.,0%
same,Percentage inhibition according to the ulcer index,Reserpine-ulcer; 10 mg./kg.,14%
same,Percentage inhibition according to ulcer diameters 2-5 mm.,Reserpine-ulcer; 10 mg./kg.,14%
same,Percentage inhibition according to ulcer diameters 5-10 mm.,Reserpine-ulcer; 10 mg./kg.,0%
same,Percentage inhibition according to ulcer diameters <2 mm.,Reserpine-ulcer; 10 mg./kg.,22%
same,Percentage inhibition according to ulcer diameters >10 mm.,Reserpine-ulcer; 10 mg./kg.,0%
same,Percentage inhibition according to the occurrence of ulcer,Reserpine-ulcer; 25 mg./kg.,70%
same,Percentage inhibition according to the ulcer index,Reserpine-ulcer; 25 mg./kg.,81%
same,Percentage inhibition according to ulcer diameters 2-5 mm.,Reserpine-ulcer; 25 mg./kg.,100%
same,Percentage inhibition according to ulcer diameters 5-10 mm.,Reserpine-ulcer; 25 mg./kg.,100%
same,Percentage inhibition according to ulcer diameters <2 mm.,Reserpine-ulcer; 25 mg./kg.,93%
same,Percentage inhibition according to ulcer diameters >10 mm.,Reserpine-ulcer; 25 mg./kg.,100%
same,Percentage inhibition according to the occurrence of ulcer,Reserpine-ulcer; 50 mg./kg.,90%
same,Percentage inhibition according to the ulcer index,Reserpine-ulcer; 50 mg./kg.,97%
same,Percentage inhibition according to ulcer diameters 2-5 mm.,Reserpine-ulcer; 50 mg./kg.,100%
same,Percentage inhibition according to ulcer diameters 5-10 mm.,Reserpine-ulcer; 50 mg./kg.,100%
same,Percentage inhibition according to ulcer diameters <2 mm.,Reserpine-ulcer; 50 mg./kg.,98%
same,Percentage inhibition according to ulcer diameters >10 mm.,Reserpine-ulcer; 50 mg./kg.,100%
same,Percentage inhibition according to the occurrence of ulcer,Shay ulcer; 100 mg./kg.,12%
same,Percentage inhibition according to the ulcer index,Shay ulcer; 100 mg./kg.,33%
same,Percentage inhibition according to ulcer diameters 2-5 mm.,Shay ulcer; 100 mg./kg.,42%
same,Percentage inhibition according to ulcer diameters 5-10 mm.,Shay ulcer; 100 mg./kg.,71%
same,Percentage inhibition according to ulcer diameters <2 mm.,Shay ulcer; 100 mg./kg.,0%
same,Percentage inhibition according to ulcer diameters >10 mm.,Shay ulcer; 100 mg./kg.,62%
same,Percentage inhibition according to the occurrence of ulcer,Shay ulcer; 200 mg./kg.,22%
same,Percentage inhibition according to the ulcer index,Shay ulcer; 200 mg./kg.,53%
same,Percentage inhibition according to ulcer diameters 2-5 mm.,Shay ulcer; 200 mg./kg.,85%
same,Percentage inhibition according to ulcer diameters 5-10 mm.,Shay ulcer; 200 mg./kg.,67%
same,Percentage inhibition according to ulcer diameters <2 mm.,Shay ulcer; 200 mg./kg.,86%
same,Percentage inhibition according to ulcer diameters >10 mm.,Shay ulcer; 200 mg./kg.,100%
same,selectivity ratio,[6],14.3
same,ED50,tetrabenazine ptosis,140 mg/kg
same,LD50,[7]; Table 4,2000 mg/kg
same,Percentage inhibition of gastric juice,gastric acid secretion [4]; 25 mg./kg. i.p.,13%
same,Percentage inhibition of free HCl,gastric acid secretion [4]; 50 mg./kg. p.o.,50%
same,Percentage inhibition of gastric juice,gastric acid secretion [4]; 50 mg./kg. p.o.,36%
same,Percentage inhibition of total acidity,gastric acid secretion [4]; 50 mg./kg. p.o.,39%
same,Percentage inhibition of free HCl,gastric acid secretion [4]; 100 mg./kg. p.o.,76%
same,Percentage inhibition of gastric juice,gastric acid secretion [4]; 100 mg./kg. p.o.,48%
same,Percentage inhibition of total acidity,gastric acid secretion [4]; 100 mg./kg. p.o.,63%
same,Percentage inhibition of free HCl,gastric acid secretion [4]; 200 mg./kg. i.p.,72%
same,Percentage inhibition of gastric juice,gastric acid secretion [4]; 200 mg./kg. i.p.,63%
same,Percentage inhibition of total acidity,gastric acid secretion [4]; 200 mg./kg. i.p.,64%
"COc1cc2[nH]nc(C(=O)NNCc3ccccc3O)c2cc1OC [Compound 32, 5,6-dimethoxyindazole-3-carboxylic acid-2'-hydroxybenzylhydrazide]",selectivity ratio,[2],120
same,ED50,small intestines,25 mg/kg
same,LD50 at 48 h,[3],> 3000 mg/kg
same,selectivity ratio,[6],136
same,ED50,tetrabenazine ptosis,22 mg/kg
same,therapeutical width,tetrabenazine ptosis; compared with amitryptiline,"significantly exceeds that of the well known agent, amitryptiline"
same,LD50,[7],> 3000 mg/kg
"COc1cc2[nH]nc(C(=O)NNC(C)c3ccc([N+](=O)[O-])cc3)c2cc1OC (centres unmarked) [Compound 35, 5,6-dimethoxyindazole-3-carboxylic acid-1'-(4""-nitrophenyl)-ethylhydrazide]",selectivity ratio,[2],2000
same,ED50,small intestines,2.5 mg/kg
same,LD50 at 48 h,[3],5000 mg/kg
same,selectivity ratio,[6],17.9
same,ED50,tetrabenazine ptosis,280 mg/kg
same,LD50,[7],> 5000 mg/kg
"COc1ccc(CC(C)NNC(=O)c2n[nH]c3cc(OC)c(OC)cc23)cc1OC (centres unmarked) [Compound 37, 5,6-dimethoxyindazole-3-carboxylic acid-2'-(3'-/3"",4""-dimethoxyphenyl/)-propylhydrazide]",selectivity ratio,[2],310
same,ED50,small intestines,8.7 mg/kg
same,LD50 at 48 h,[3]; [8],2700 mg/kg
"CCCN(CCC)C(=O)C(CCC(=O)O)NC(=O)c1ccccc1 (centres unmarked) [Xylamide, reference compound]",Percentage inhibition of free HCl,gastric acid secretion [4]; 500 mg./kg. intraperitoneal,89%
same,Percentage inhibition of gastric juice,gastric acid secretion [4]; 500 mg./kg. intraperitoneal,81%
same,Percentage inhibition of total acidity,gastric acid secretion [4]; 500 mg./kg. intraperitoneal,80%
"CN(C)CCC=C1c2ccccc2CCc2ccccc21 [amitryptiline, 5-(3-dimethylamino-propylidene)-10,11-dihydro-5H-dibenzo(a,d)cycloheptan hydrochloride, reference compound]",selectivity ratio,[6],17.3
same,ED50,tetrabenazine ptosis,13 mg/kg
same,LD50,[7]; Table 4,225 mg/kg
"COc1ccc(Cc2nccc3cc(OC)c(OC)cc23)cc1OC [papaverine, reference compound]",selectivity ratio,[2],2.9
same,ED50,small intestines,46 mg/kg
same,LD50 at 48 h,[3]; [8],132 mg/kg
